In patent US9975878B2, “Substituted triazine BMI-1 inhibitors” (PTC Therapeutics, Inc., priority 2013, dated 2018):

Test system: Bmi-1 protein
Experiment: Sandwich ELISA Assay: Bmi-1 protein level in HT-1080 cells treated with test compounds
Format: cell-based
Method: Cell Seeding and Compound Treatment (Day 1):
HT-1080 cells were seeded at 8000 cells/well (50 μL) in 96-well tissue culture plates. After the cells became adherent (3-4 hours), 2× diluted stocks of test compounds in 50 μL DMEM containing 1% DMSO (final DMSO concentration was 0.5%) were added and the plates were incubated at 37° C. under 5% CO2 for 40-48 hours.
ELISA Plate First Antibody Preparation (Day 2):
The First Antibody (Millipore Mouse, monoclonal to mouse Bmi-1, clone F6, catalog #05-637) diluted to 2 μg/mL in PBS was added (100 μL) to each well of a Nunc MaxiSorp 96-well ELISA plate. The plate was covered with a plate seal and allowed to stand overnight.
Cell Lysate Preparation (Day 3):
Fresh Lysis buffer (1×) was prepared on the day of the assay as follows: 1 mM EDTA, 150 mM NaCl, 0.5% Triton-X 100, 10 mM NaF, 20 mM B-Glycerophosphate, 1 mM DTT (in PBS, pH 7.2-7.4) and HALT protease inhibitor cocktail (1×) (Pierce #78410).
Lysis Buffer (1×, 40 μL) was added to each well and the plate was shaken for 5-10 minutes on an orbital shaker to allow cell lysis, then diluent (1% BSA in PBS in 0.5% NP40) (100 μL) was added to each well.
A standard curve was prepared at the following Bmi-1 concentrations: 8000, 4000, 2000, 1000, 500, 250, 125 and 0 pg/mL. The Bmi-1 Recombinant Protein Standard (Novus Biologicals PCGF4 Recombinant Protein (P01), catalog # H00000648-P01) used to prepare the standard curve was stored at −80° C. On first thaw, the Recombinant Protein Standard was diluted to 10 μg/μL in Blocking Buffer (1% BSA in PBS; BSA: Fisher Scientific Catalog #1600-100). Aliquots were taken and refrozen at −80° C. The aliquots may be kept at 4° C. and reused after first thaw, but only within 1-2 weeks. The Recombinant Protein Standard contains a GST-fusion tag that appears at approximately 70 Kda on Western Blot.
The prepared ELISA plate was washed 3× with Wash Buffer (0.05% Tween-20 in PBS). The final wash was removed from the plate and the plate was blotted dry. Blocking Buffer (300 μL) (1% BSA in PBS) was added to each well. The plate was covered with a plate seal and incubated at room temperature for 1 hour. The blocked plate was washed 3× with Wash Buffer, then the final wash was removed and the plate was blotted dry. The previously prepared samples and standards were added (100 μL/well) and the plate was covered with a plate seal and incubated at 4° C. overnight.
The prepared ELISA plate was removed from incubation and allowed to stand at room temperature for 30 minutes, then washed and blotted dry. The Second Antibody (Cell Signaling Rabbit anti-Bmi-1, Cat# 2830) diluted to 1:600 in Blocking Buffer was added (100 μL) to each well, except as needed for background control wells. The plate was covered with a plate seal and incubated for 1.5 hrs at room temperature.
The ELISA plate was washed and blotted dry as previously described. The Third Antibody (Cell Signaling HRP conjugated anti-rabbit IgG (CellSignaling, Cat#:7074) diluted to 1:300 in Blocking Buffer was added (100 μL) to each well, except as needed for background control wells. The plate was incubated for 1 hr at room temperature.
The plate was washed and blotted dry, then a previously prepared TMB substrate (TMB substrate kit, Pierce catalog #34021) (prepared by mixing kit reagents 1:1) (100 μL) was added per well. The plate was incubated for 20-30 minutes at room temperature in the dark, then Stop Solution (2 M sulfuric acid in water) (50 μL) was added per well. The plates were read at OD450 (experimental) and OD570 (reference).

EC50 | Compound
10 to 100 nM | CCc1nc2cc(F)ccc2n1-c1nc(N)nc(Nc2ccc(OC(F)F)cc2)n1 [Cpd 59, N-[4-(difluoromethoxy)phenyl]-6-(2-ethyl-5-fluoro-1H-benzimidazol-1-yl)-1,3,5-triazine-2,4-diamine]
10 to 100 nM | CCc1nc2cc(F)ccc2n1-c1nc(N)nc(Nc2ccc(OC(F)F)c(F)c2)n1 [Cpd 60, N-[4-(difluoromethoxy)-3-fluorophenyl]-6-(2-ethyl-5-fluoro-1H-benzimidazol-1-yl)-1,3,5-triazine-2,4-diamine]
10 to 100 nM | Nc1nc(Nc2ccc(C(F)(F)F)cc2)nc(-c2c(C(F)(F)F)nc3ccccn23)n1 [Cpd 61, 6-[2-(trifluoromethyl)imidazo[1,2-a]pyridin-3-yl]-N-[4-(trifluoromethyl)phenyl]-1,3,5-triazine-2,4-diamine]
10 to 100 nM | Nc1nc(Nc2ccc(C(F)(F)F)cc2)nc(-n2c(C3CC3)nc3ccc(F)cc32)n1 [Cpd 62, 6-(2-cyclopropyl-6-fluoro-1H-benzimidazol-1-yl)-N-[4-(trifluoromethyl)phenyl]-1,3,5-triazine-2,4-diamine]
10 to 100 nM | Nc1nc(Nc2ccc(OC(F)F)cc2)nc(-n2c(C3CC3)nc3ccc(F)cc32)n1 [Cpd 63, 6-(2-cyclopropyl-6-fluoro-1H-benzimidazol-1-yl)-N-[4-(difluoromethoxy)phenyl]-1,3,5-triazine-2,4-diamine]
10 to 100 nM | Nc1nc(Nc2ccc(OC(F)F)c(F)c2)nc(-n2c(C3CC3)nc3ccc(F)cc32)n1 [Cpd 64, 6-(2-cyclopropyl-6-fluoro-1H-benzimidazol-1-yl)-N-[4-(difluoromethoxy)-3-fluorophenyl]-1,3,5-triazine-2,4-diamine]
100 to 3000 nM | Nc1nc(Nc2ccc(C(F)(F)F)cc2)nc(-n2c(C3CC3)nc3cc(F)ccc32)n1 [Cpd 65, 6-(2-cyclopropyl-5-fluoro-1H-benzimidazol-1-yl)-N-[4-(trifluoromethyl)phenyl]-1,3,5-triazine-2,4-diamine]
10 to 100 nM | Nc1nc(Nc2ccc(OC(F)F)cc2)nc(-n2c(C3CC3)nc3cc(F)ccc32)n1 [Cpd 66, 6-(2-cyclopropyl-5-fluoro-1H-benzimidazol-1-yl)-N-[4-(difluoromethoxy)phenyl]-1,3,5-triazine-2,4-diamine]
100 to 3000 nM | Nc1nc(Nc2ccc(OC(F)F)c(F)c2)nc(-n2c(C3CC3)nc3cc(F)ccc32)n1 [Cpd 67, 6-(2-cyclopropyl-5-fluoro-1H-benzimidazol-1-yl)-N-[4-(difluoromethoxy)-3-fluorophenyl]-1,3,5-triazine-2,4-diamine]
10 to 100 nM | CCc1nc2c(F)cccc2n1-c1nc(N)nc(Nc2ccc(C(F)(F)F)cc2)n1 [Cpd 68, 6-(2-ethyl-4-fluoro-1H-benzimidazol-1-yl)-N-[4-(trifluoromethyl)phenyl]-1,3,5-triazine-2,4-diamine]
10 to 100 nM | CCc1nc2c(F)cccc2n1-c1nc(N)nc(Nc2ccc(OC(F)F)cc2)n1 [Cpd 69, N-[4-(difluoromethoxy)phenyl]-6-(2-ethyl-4-fluoro-1H-benzimidazol-1-yl)-1,3,5-triazine-2,4-diamine]
10 to 100 nM | CCc1nc2c(F)cccc2n1-c1nc(N)nc(Nc2ccc(OC(F)F)c(F)c2)n1 [Cpd 70, N-[4-(difluoromethoxy)-3-fluorophenyl]-6-(2-ethyl-4-fluoro-1H-benzimidazol-1-yl)-1,3,5-triazine-2,4-diamine]
100 to 3000 nM | Nc1nc(Nc2ccc(C(F)(F)F)c(F)c2)nc(-c2c(C(F)(F)F)nc3ccccn23)n1 [Cpd 71, N-[3-fluoro-4-(trifluoromethyl)phenyl]-6-[2-(trifluoromethyl)imidazo[1,2-a]pyridin-3-yl]-1,3,5-triazine-2,4-diamine]
10 to 100 nM | Nc1nc(Nc2ccc(OC(F)F)cc2)nc(-c2c(C(F)(F)F)nc3ccccn23)n1 [Cpd 72, N-[4-(difluoromethoxy)phenyl]-6-[2-(trifluoromethyl)imidazo[1,2-a]pyridin-3-yl]-1,3,5-triazine-2,4-diamine]
10 to 100 nM | Nc1nc(Nc2ccc(OC(F)F)cc2)nc(-c2c(C(F)(F)F)nc3ccc(F)cn23)n1 [Cpd 73, N-[4-(difluoromethoxy)phenyl]-6-[6-fluoro-2-(trifluoromethyl)imidazo[1,2-a]pyridin-3-yl]-1,3,5-triazine-2,4-diamine]
100 to 3000 nM | Cc1nc2cc(Cl)ccc2n1-c1nc(N)nc(Nc2ccc(C(F)(F)F)cc2)n1 [Cpd 74, 6-(5-chloro-2-methyl-1H-benzimidazol-1-yl)-N-[4-(trifluoromethyl)phenyl]-1,3,5-triazine-2,4-diamine]
10 to 100 nM | Cc1nc2ccc(Cl)cc2n1-c1nc(N)nc(Nc2ccc(C(F)(F)F)cc2)n1 [Cpd 75, 6-(6-chloro-2-methyl-1H-benzimidazol-1-yl)-N-[4-(trifluoromethyl)phenyl]-1,3,5-triazine-2,4-diamine]
100 to 3000 nM | Fc1ccc2nc(C3CC3)n(-c3ncnc(Nc4ccc(C(F)(F)F)cc4)n3)c2c1 [Cpd 76, 4-(2-cyclopropyl-6-fluoro-1H-benzimidazol-1-yl)-N-[4-(trifluoromethyl)phenyl]-1,3,5-triazin-2-amine]
10 to 100 nM | Nc1nc(Nc2ccc(OC(F)F)cc2)nc(-n2c(C3CC3)nc3ncc(F)cc32)n1 [Cpd 77, 6-(2-cyclopropyl-6-fluoro-1H-imidazo[4,5-b]pyridin-1-yl)-N-[4-(difluoromethoxy)phenyl]-1,3,5-triazine-2,4-diamine]
100 to 3000 nM | Cc1nc2ncc(F)cc2n1-c1nc(N)nc(Nc2ccc(OC(F)F)cc2)n1 [Cpd 78, N-[4-(difluoromethoxy)phenyl]-6-(6-fluoro-2-methyl-1H-imidazo[4,5-b]pyridin-1-yl)-1,3,5-triazine-2,4-diamine]
10 to 100 nM | CCc1nc2ncc(F)cc2n1-c1nc(N)nc(Nc2ccc(OC(F)F)cc2)n1 [Cpd 79, N-[4-(difluoromethoxy)phenyl]-6-(2-ethyl-6-fluoro-1H-imidazo[4,5-b]pyridin-1-yl)-1,3,5-triazine-2,4-diamine]
100 to 3000 nM | Cc1nc2cc(Cl)ccc2n1-c1nc(N)nc(Nc2ccc(OC(F)F)cc2)n1 [Cpd 80, 6-(5-chloro-2-methyl-1H-benzimidazol-1-yl)-N-[4-(difluoromethoxy)phenyl]-1,3,5-triazine-2,4-diamine]
10 to 100 nM | Cc1nc2ccc(Cl)cc2n1-c1nc(N)nc(Nc2ccc(OC(F)F)cc2)n1 [Cpd 81, 6-(6-chloro-2-methyl-1H-benzimidazol-1-yl)-N-[4-(difluoromethoxy)phenyl]-1,3,5-triazine-2,4-diamine]
10 to 100 nM | CCc1nc2ncc(F)cc2n1-c1nc(N)nc(Nc2ccc(C(F)(F)F)cc2)n1 [Cpd 82, 6-(2-ethyl-6-fluoro-1H-imidazo[4,5-b]pyridin-1-yl)-N-[4-(trifluoromethyl)phenyl]-1,3,5-triazine-2,4-diamine]
10 to 100 nM | Nc1nc(Nc2ccc(OC(F)F)cc2)nc(-n2c(C3CC3)nc3cc(F)c(F)cc32)n1 [Cpd 83, 6-(2-cyclopropyl-5,6-difluoro-1H-benzimidazol-1-yl)-N-[4-(difluoromethoxy)phenyl]-1,3,5-triazine-2,4-diamine]
10 to 100 nM | CCc1nc2cc(F)c(F)cc2n1-c1nc(N)nc(Nc2ccc(OC(F)F)cc2)n1 [Cpd 84, N-[4-(difluoromethoxy)phenyl]-6-(2-ethyl-5,6-difluoro-1H-benzimidazol-1-yl)-1,3,5-triazine-2,4-diamine]
10 to 100 nM | Nc1nc(Nc2ccc(C(F)(F)F)cc2)nc(-n2c(C3CC3)nc3c(F)cccc32)n1 [Cpd 85, 6-(2-cyclopropyl-4-fluoro-1H-benzimidazol-1-yl)-N-[4-(trifluoromethyl)phenyl]-1,3,5-triazine-2,4-diamine]
